ChEMBL document CHEMBL1177879, “Transition metal complexes of a new hexadentate macroacyclic N2O4-donor Schiff base: inhibitory activity against bacteria and fungi” (2010)

Experiments:
Conditions in all cases: read-out: IZ
[1] = system: Escherichia coli; test: Antibacterial activity against Escherichia coli at 50 ug after 48 hrs by agar well diffusion assay; format: functional
[2] = system: Aspergillus niger; test: Antifungal activity against Aspergillus niger at 50 ug after 48 hrs by agar well diffusion assay; format: functional
[3] = system: Candida albicans; test: Antifungal activity against Candida albicans at 50 ug after 48 hrs by agar well diffusion assay; format: functional
[4] = system: Bacillus cirroflagellosus; test: Antibacterial activity against Bacillus cirroflagellosus at 50 ug after 48 hrs by agar well diffusion assay

With `O=NN(CC(=O)N/N=C\C=N\NC(=O)CN(N=O)c1ccccc1)c1ccccc1` the zone of inhibition at 50 µg/disc [1] was 16.3 mm, the zone of inhibition at 50 µg/disc [2] was 16.7 mm and the zone of inhibition at 50 µg/disc [3] was 19.3 mm. The zone of inhibition at 50 µg/disc [4] was 16 mm.

For `CCn1cc(C(=O)O)c(=O)c2cc(F)c(N3CCNCC3)cc21` [NORFLOXACIN], the zone of inhibition at 50 µg/disc [1] was 28.3 mm and the zone of inhibition at 50 µg/disc [4] was 28.3 mm.

Compound `COC1=CC(=O)C[C@@H](C)[C@]12Oc1c(Cl)c(OC)cc(OC)c1C2=O` [GRISEOFULVIN] has a zone of inhibition at 50 µg/disc [2] of 29 mm and a zone of inhibition at 50 µg/disc [3] of 29.3 mm.
